From US6417167B1, “Lyophilized compositions containing shingoglycolipid and process for preparing them” (Kirin Beer Kabushiki Kaisha, priority 1997, dated 2002)

Assay: Excipient appropriate to lyophilization 1: re-solubility immediately after lyophilization
Assay type: physicochemical
Conditions: KRN7000 200 μg/ml, Polysorbate 20 0.5%
Experimental: A variety of monosaccharides and disaccharides were used for examination of excipients of the lyophilized preparation. In this context, the active component (KRN7000) was set at the concentration of 200 μg/ml, and Polysorbate 20 which is used only in a limited amount from the viewpoint of safety was set at the concentration of 0.5% in the following examination.
First, Polysorbate 20 was dissolved in distilled water in a concentration of 0.5%, and the saccharides were dissolved in such concentrations as listed in Table 6. Next, 20 mg of the active component (KRN7000) was weighed and stirred in 100 ml of the solvents in a heated bath to 80° C. for 20 minutes in order to form a solution. After cooling with running water, the mixture was filtered through a 0.22 μm filter, and transparent colorless glass vials having a volume of 5 ml were charged with a 1 ml portion of each of a variety of solutions thus obtained and subjected to lyophilization. Lyophilization was carried out under the condition of preliminary freezing at −40° C. for 2 hours and drying at −20° C. for 24 hours, 10° C. for 12 hours, and finally at 25° C. for 5 hours to give the lyophilized product. The degree of vacuum was set at 0.1 Torr or less during drying step.
After the lyophilization step, the lyophilized composition was reconstituted in 1 ml of distilled water for injection, left standing for 30 minutes, and solubility was judged when the foams generated on reconstitution disappeared.
The solubility was judged by cleaning the outside of the vial and placing it beneath the white light source in a darkroom for observation with naked eye at the position of a luminous intensity of about 5,000 lux. When the sample was clear with no precipitates, it was judged that the active component was dissolved.

Re-solubility immediately after lyophilization (excipient Fructose 5%): + (not dissolved (or deposited)) | Re-solubility immediately after lyophilization (excipient Fructose 10%): + (not dissolved (or deposited)) | Re-solubility immediately after lyophilization (excipient Glucose 5%): − (dissolved) | Re-solubility immediately after lyophilization (excipient Glucose 10%): + (not dissolved (or deposited)) | Re-solubility immediately after lyophilization (excipient Lactose 5%): + (not dissolved (or deposited)) | Re-solubility immediately after lyophilization (excipient Lactose 10%): + (not dissolved (or deposited)) | Re-solubility immediately after lyophilization (excipient Maltose 1.5%): + (not dissolved (or deposited)) | Re-solubility immediately after lyophilization (excipient Maltose 3%): + (not dissolved (or deposited)) | Re-solubility immediately after lyophilization (excipient Mannitol 5%): + (not dissolved (or deposited)) | Re-solubility immediately after lyophilization (excipient Mannitol 10%): − (dissolved) | Re-solubility immediately after lyophilization (excipient Sorbitol 5%): + (not dissolved (or deposited)) | Re-solubility immediately after lyophilization (excipient Sorbitol 10%): + (not dissolved (or deposited)) | Re-solubility immediately after lyophilization (excipient Sucrose 4.8%): − (dissolved) | Re-solubility immediately after lyophilization (excipient Sucrose 9.6%): − (dissolved) | Re-solubility immediately after lyophilization (excipient Xylitol 4.3%): + (not dissolved (or deposited)) | Re-solubility immediately after lyophilization (excipient Xylitol 8.6%): + (not dissolved (or deposited))
Structure (SMILES): CCCCCCCCCCCCCCCCCCCCCCCCCC(=O)N[C@@H](CO[C@H]1O[C@H](CO)[C@H](O)[C@H](O)[C@H]1O)[C@H](O)[C@H](O)CCCCCCCCCCCCCC [KRN7000, (2S,3S,4R)-1-(α-D-galactopyranosyloxy)-2-hexacosanoylamino-3,4-octadecanediol]
